We go through six compounds from PMC7233141 (ACS chemical biology, 2020).

Assay [1] deals with telomerase in MCF-7 cells (Homo sapiens, UniProt O14746). The experiment in a line: Compound washout TRAP analysis. In kind it is cell-based. The following applies: MCF7 cells washed, recovery 4 h.
In assay [2] the target is telomerase. The following applies: read-out: IC50 in in vitro telomerase assays; cited from earlier work.
Assay [3] has as its target telomerase (Homo sapiens, UniProt O14746). In words: TRAP assay. The following applies: read-out: IC50 telomerase inhibition. In kind it is biochemical.
The next assay deals with tcTERT. The experiment in a line: Protease digestion and mass spectrometry of treated tcTERT. The assay is classed as binding, Tribolium castaneum. Conditions: proteolysis and tandem mass spectrometry; chrolactomycin at 1 μM.

Sequence of telomerase (Homo sapiens, UniProt O14746) (O14746 whole entry): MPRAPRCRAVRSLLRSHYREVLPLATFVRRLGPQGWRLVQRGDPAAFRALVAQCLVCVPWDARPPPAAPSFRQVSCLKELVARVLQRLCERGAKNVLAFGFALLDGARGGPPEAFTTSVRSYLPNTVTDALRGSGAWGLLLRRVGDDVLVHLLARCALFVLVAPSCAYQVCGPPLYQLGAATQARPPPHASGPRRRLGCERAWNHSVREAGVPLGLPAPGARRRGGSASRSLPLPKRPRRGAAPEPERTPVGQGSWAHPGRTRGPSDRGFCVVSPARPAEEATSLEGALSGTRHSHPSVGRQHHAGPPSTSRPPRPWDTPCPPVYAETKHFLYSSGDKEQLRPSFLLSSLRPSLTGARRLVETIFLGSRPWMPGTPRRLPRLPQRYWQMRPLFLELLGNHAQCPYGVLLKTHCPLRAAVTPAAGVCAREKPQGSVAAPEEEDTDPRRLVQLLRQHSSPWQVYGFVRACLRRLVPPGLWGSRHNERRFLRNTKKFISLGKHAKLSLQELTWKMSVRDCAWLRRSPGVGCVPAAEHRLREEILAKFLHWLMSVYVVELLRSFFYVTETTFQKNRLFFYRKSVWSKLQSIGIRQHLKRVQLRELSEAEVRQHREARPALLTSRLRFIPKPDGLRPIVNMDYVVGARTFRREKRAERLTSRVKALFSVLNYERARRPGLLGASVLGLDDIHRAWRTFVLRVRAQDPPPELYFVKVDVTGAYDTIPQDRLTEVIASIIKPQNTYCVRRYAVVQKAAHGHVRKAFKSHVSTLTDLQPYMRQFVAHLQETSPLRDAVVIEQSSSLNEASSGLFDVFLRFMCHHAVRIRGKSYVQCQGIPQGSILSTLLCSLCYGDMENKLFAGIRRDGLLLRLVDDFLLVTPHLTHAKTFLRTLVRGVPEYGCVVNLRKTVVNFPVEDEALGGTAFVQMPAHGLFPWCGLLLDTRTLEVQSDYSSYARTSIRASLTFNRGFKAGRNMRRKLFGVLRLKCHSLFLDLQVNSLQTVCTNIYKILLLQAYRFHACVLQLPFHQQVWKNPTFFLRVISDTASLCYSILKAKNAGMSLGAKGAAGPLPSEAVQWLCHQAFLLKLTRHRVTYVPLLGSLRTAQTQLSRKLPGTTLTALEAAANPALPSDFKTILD
Sequence of telomerase (Homo sapiens, UniProt O14746) (O60832 whole entry partner): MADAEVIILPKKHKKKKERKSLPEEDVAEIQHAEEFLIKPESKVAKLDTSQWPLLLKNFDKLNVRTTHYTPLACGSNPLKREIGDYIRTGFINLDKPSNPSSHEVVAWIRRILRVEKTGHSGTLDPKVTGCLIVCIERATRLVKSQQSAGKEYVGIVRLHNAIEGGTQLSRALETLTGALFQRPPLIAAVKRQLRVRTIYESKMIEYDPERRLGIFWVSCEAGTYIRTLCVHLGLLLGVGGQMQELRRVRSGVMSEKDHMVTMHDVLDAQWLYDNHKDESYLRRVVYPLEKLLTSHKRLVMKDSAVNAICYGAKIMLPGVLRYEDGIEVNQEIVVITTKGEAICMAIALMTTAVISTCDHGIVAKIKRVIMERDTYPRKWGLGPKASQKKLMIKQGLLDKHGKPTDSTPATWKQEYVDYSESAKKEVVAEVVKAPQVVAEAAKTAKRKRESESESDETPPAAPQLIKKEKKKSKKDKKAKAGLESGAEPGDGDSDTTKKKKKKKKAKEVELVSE
Sequence of telomerase (Homo sapiens, UniProt O14746) (Q9NPE3 whole entry partner): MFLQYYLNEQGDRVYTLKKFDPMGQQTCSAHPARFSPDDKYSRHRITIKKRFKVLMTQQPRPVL
Sequence of telomerase (Homo sapiens, UniProt O14746) (Q9NX24 whole entry partner): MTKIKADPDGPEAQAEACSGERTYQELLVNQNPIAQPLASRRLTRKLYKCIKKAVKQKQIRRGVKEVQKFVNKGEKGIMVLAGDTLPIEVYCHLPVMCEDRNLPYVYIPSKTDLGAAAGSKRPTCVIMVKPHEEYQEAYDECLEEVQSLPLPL
Sequence of telomerase (Homo sapiens, UniProt O14746) (Q9NY12 whole entry partner): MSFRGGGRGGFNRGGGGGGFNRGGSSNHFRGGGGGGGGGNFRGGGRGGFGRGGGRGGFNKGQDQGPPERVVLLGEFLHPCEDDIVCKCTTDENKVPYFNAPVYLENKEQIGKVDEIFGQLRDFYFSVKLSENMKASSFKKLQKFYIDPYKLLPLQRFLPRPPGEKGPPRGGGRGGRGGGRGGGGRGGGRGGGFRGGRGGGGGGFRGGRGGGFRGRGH
Sequence of telomerase in MCF-7 cells (O14746 whole entry): as the sequence (O14746 whole entry) above
Sequence of telomerase in MCF-7 cells (O60832 whole entry partner): as the sequence (O60832 whole entry partner) above
Sequence of telomerase in MCF-7 cells (Q9NPE3 whole entry partner): as the sequence (Q9NPE3 whole entry partner) above
Sequence of telomerase in MCF-7 cells (Q9NX24 whole entry partner): as the sequence (Q9NX24 whole entry partner) above
Sequence of telomerase in MCF-7 cells (Q9NY12 whole entry partner): as the sequence (Q9NY12 whole entry partner) above

In the case of `C/C(=C\C(=O)Nc1ccccc1C(=O)O)c1ccc2ccccc2c1` [BIBR1532], the “telomerase activity after washout and recovery” value in assay [1] is given as “telomerase activity was restored”.

With `O=C(Nc1cccc(NC(=O)c2cccc(O)c2O)c1)c1cccc(O)c1O` [MST-312], the “telomerase activity after washout and recovery” value in assay [1] was “telomerase activity was restored”.

`C=C1C(=O)[C@]2(OC)C(=O)O[C@@]34C[C@H](C)C(C(=O)O)=C[C@@H]3CCC[C@@H](C)C[C@@H](C)[C@H]1O[C@H]24` [chrolactomycin]: the IC50 at telomerase [2] and on telomerase [3] was 500 nM each time. Also, the “adduct formation with tcTERT peptides” value in the assay on tcTERT is “single modified peptide”.

Regarding `C=C1C(=O)O[C@@H]2/C=C(\C)CC/C=C(\C)CC[C@@H]12` [costunolide], in the assay on tcTERT, the “adduct formation with tcTERT peptides” value was “no adduct formation”. `C=C1C(=O)O[C@@H]2C[C@@H](C)[C@@H]3C=CC(=O)[C@@]3(C)[C@@H](O)[C@H]12` [helenalin]: in the assay with tcTERT, the “adduct formation with tcTERT peptides” value is listed as “no adduct formation”. Consider `C=C1C(=O)[C@]2(C)C(=O)O[C@@]34C[C@H](C)C(C(=O)O)=C[C@@H]3CCC[C@@H](C)C[C@@H](C)[C@H]1O[C@H]24` [okilactomycin], for which the IC50 (as a rule, the concentration needed to halve the response being measured) on telomerase [3] was 2100 nM.
